Results as given in EP0069521A2, “Pyridinyl and imidazolyl derivatives of benzofurans and benzothiophenes” (THE UPJOHN COMPANY, priority 1981, dated 1983).

Biological target: T1, TXA2 synthetase (Homo sapiens, UniProt P24557)
T1 construct: generated by mixing prostaglandin H2 (PGHz) with human platelet microsomes (HPM); from tissue; host or cells: human platelet microsomes
T1 sequence (P24557 1-533): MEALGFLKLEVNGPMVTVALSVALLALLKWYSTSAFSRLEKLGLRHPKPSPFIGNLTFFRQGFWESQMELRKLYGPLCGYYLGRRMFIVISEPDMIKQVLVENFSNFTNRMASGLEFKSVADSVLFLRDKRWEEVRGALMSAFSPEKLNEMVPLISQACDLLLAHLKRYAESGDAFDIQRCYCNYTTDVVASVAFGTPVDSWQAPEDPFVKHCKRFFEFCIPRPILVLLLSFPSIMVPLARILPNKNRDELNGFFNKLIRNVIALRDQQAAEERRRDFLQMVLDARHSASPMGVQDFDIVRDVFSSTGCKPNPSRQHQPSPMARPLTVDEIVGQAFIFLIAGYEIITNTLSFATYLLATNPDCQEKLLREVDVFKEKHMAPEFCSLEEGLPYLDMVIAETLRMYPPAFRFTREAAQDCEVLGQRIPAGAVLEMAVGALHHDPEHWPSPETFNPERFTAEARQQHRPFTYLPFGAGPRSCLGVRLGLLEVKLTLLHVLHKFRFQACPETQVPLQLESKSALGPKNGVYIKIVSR
Assay: TXA2 inhibition test: TXA2 generated by mixing PGH2 with human platelet microsomes, response of superfused rabbit aortic strips
Format: biochemical
Conditions: inhibiting TXA2 formation; test compound added to human platelet microsomes 5 minutes before mixing with PGH2; rabbit aorta response
Description: The compounds of the present invention were tested for TXA2 inhibition as follows: • Rabbit aortic strips were superfused in series with Krebs solution. Thromboxane Az (TXA2) was generated by mixing prostaglandin H2 (PGHz) with human platelet microsomes (HPM).
Potential inhibitors were tested by comparing the response of the rabbit aorta to the amount of TXA2 produced by mixing PGH2 and HPM without the test compound in the reaction medium and then the amount of TXA2 produced when the test compound was added to the HPM 5 minutes before the HPM was mixed with PGH2. […] For a discussion of TXA2 synthetase inhibition testing see, e.g., R. Gorman, supra.

O=C([O-])c1cc2cc(Cc3cccnc3)ccc2o1.[Na+] [Example A-2, Sodium 5-(3'-pyridinylmethyl)benzofuran-2-carboxylate]
approximate ED50: ~0.01 µg/mL
